Laboratory results reported in patent publication US10174050B2, “Spiroisoxazoline compounds having an activity potentiating the activity of an antibiotic” (priority 2012, dated 2019).
Converted amounts (≈) assume the structure as drawn.

Columns and labels:
[1] = system: macrophages infected by M. tuberculosis; assay: Potentiation of ethionamide cell test (HCS); format: cell-based; conditions: ligand concentration necessary to potentiate ten times the activity of ethionamide (inhibit 50% of bacterial growth), constant ethionamide 0.1 μg/mL (1/10th of its CMI99)
physchem = format: physicochemical; conditions: pH 7.4, aqueous buffer, kinetic from dmso stock
Protocol: 40 μL of a 10 mM solution in DMSO of the sample are added to 1.96 mL MeOH or PBS at pH 7.4. The samples are then agitated during 24 h at RT, centrifuged during 5 min and then filtrated on filters of 0.45 μm pore size. 20 μL of each solution are then added to 180 μL MeOH and then analyzed by LC-MS. The solubility is determined as ratio of the surfaces of the mass signals PBS/MeOH.

## COc1cccc(C2=NOC3(CCN(C(=O)CCC(F)(F)F)CC3)C2)c1 [Compound 15]
[1]
  EC50: 290 nM

## COc1ccccc1C1=NOC2(CCN(C(=O)CCC(C)C)CC2)C1 [Compound 49]
[1]
  EC50: 630 nM

## O=C(CCC(F)(F)F)N1CCC2(CC(c3ccccc3)=NO2)C1 (stereo not shown) [Compound 4]
[1]
  EC50: 530 nM

## O=C(CCC(F)(F)F)N1CCC2(CC1)CC(c1ccco1)=NO2 [Compound 30]
[1]
  EC50: 50 nM

## O=C(CCC(F)(F)F)N1CCC2(CC1)CC(c1ccc3c(c1)OCO3)=NO2 [Compound 18]
[1]
  EC50: 1300 nM

## O=C(CCC(F)(F)F)N1CCC2(CC1)CC(c1ccccc1)=NO2 [Compound 10]
physchem
  solubility at 24 h: 150 µM (≈ 51.1 µg/mL)
[1]
  EC50: 20 nM

## O=C(CCCC(F)(F)F)N1CCC2(CC1)CC(c1nccs1)=NO2 [Compound 9]
[1]
  EC50: 70 nM

## O=C(CCC(F)(F)F)N1CCC2(CC1)CC(c1ccccn1)=NO2 [Compound 31]
[1]
  EC50: 150 nM

## O=C(CCC(F)(F)F)N1CCC2(CC1)CC(Cc1ccccc1)=NO2 [Compound 29]
[1]
  EC50: 20 nM

## O=C(CCCC(F)(F)F)N1CCC2(CC1)CC(c1ccccc1Cl)=NO2 [Compound 50]
[1]
  EC50: 770 nM

## CC(C)CCC(=O)N1CCC2(CC1)CC(c1ccccc1)=NO2 [Compound 32]
[1]
  EC50: 5000 nM

## O=C(CCC(F)(F)F)N1CC2(CC(c3ccccc3)=NO2)C1 [Compound 5]
[1]
  EC50: 110 nM

## CC(C)CCC(=O)N1CCC2(CC1)CC(c1ccccc1Cl)=NO2 [Compound 46]
[1]
  EC50: 1300 nM

## O=C(CCc1ccccc1)N1CCC2(CC1)CC(c1ccccc1)=NO2 [Compound 59]
[1]
  EC50: 1000 nM

## O=C(CCC(F)(F)F)N1CCC2(CC1)CC(C1CCCCC1)=NO2 [Compound 27]
[1]
  EC50: 80 nM

## Cc1ccc(C2=NOC3(CCN(C(=O)CCC(F)(F)F)CC3)C2)cc1 [Compound 11]
[1]
  EC50: 2500 nM

## O=C(CCC(F)(F)F)N1CCC2(CC1)CC(c1ccc(Cl)cc1)=NO2 [Compound 21]
[1]
  EC50: 5800 nM

## CC(C)CCC(=O)N1CCC2(CC1)CC(c1ccccn1)=NO2 [Compound 45]
[1]
  EC50: 1300 nM

## CC(C)CCC(=O)N1CCC2(CC1)CC(c1cccs1)=NO2 [Compound 8]
[1]
  EC50: 130 nM

## O=C(CCC(F)(F)F)N1CCC2(CC1)CC(c1cccs1)=NO2 [Compound 6]
[1]
  EC50: 30 nM

## O=C(CCC(F)(F)F)N1CCC2(CC1)CC(C1CCCC1)=NO2 [Compound 28]
[1]
  EC50: 80 nM

## O=C(CCC(F)(F)F)N1CCC2(CC1)CC(c1cccc(C(F)(F)F)c1)=NO2 [Compound 23]
[1]
  EC50: 400 nM

## O=C(CCC(F)(F)F)N1CCC2(CC1)CC(c1ccccc1Cl)=NO2 [Compound 20]
[1]
  EC50: 30 nM

## COc1ccccc1C1=NOC2(CCN(C(=O)CCC(F)(F)F)CC2)C1 [Compound 14]
[1]
  EC50: 20 nM

## O=C(CCC(F)(F)F)N1CCC2(CC1)CC(c1ccc(F)cc1)=NO2 [Compound 22]
[1]
  EC50: 500 nM

## O=C(CCC(F)(F)F)N1CCC2(CC1)CC(c1nccs1)=NO2 [Compound 7]
[1]
  EC50: 40 nM

## O=C(CCCC(F)(F)F)N1CCC2(CC1)CC(c1ccccc1)=NO2 [Compound 51]
[1]
  EC50: 1000 nM
